Reference: ChEMBL document CHEMBL1143295, “Discovery of potent inhibitors of interleukin-2 inducible T-cell kinase (ITK) through structure-based drug design” (Bioorg Med Chem Lett, 2009)

Experiments:
[1] = molecular target: T1, Tyrosine-protein kinase ITK/TSK (Homo sapiens, UniProt Q08881); test: Inhibition of ITK by DELFIA method
T1 sequence (Q08881 whole entry): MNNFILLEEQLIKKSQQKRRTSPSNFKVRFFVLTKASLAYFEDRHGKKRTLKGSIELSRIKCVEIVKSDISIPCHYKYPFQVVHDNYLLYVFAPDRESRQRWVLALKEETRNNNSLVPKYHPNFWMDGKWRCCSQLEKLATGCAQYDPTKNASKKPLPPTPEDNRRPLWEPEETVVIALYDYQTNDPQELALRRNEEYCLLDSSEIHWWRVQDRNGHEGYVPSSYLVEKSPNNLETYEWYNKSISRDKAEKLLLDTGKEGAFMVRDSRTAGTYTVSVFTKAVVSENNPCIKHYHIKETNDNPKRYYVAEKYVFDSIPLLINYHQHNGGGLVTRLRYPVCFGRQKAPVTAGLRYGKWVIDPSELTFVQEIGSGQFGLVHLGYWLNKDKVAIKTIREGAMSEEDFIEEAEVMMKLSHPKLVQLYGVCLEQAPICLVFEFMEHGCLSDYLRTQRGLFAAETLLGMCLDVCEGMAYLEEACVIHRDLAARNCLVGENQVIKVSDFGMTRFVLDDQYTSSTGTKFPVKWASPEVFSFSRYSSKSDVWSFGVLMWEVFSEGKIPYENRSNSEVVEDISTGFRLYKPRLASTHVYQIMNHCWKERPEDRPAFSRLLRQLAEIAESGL

Insulin receptor = Insulin receptor (Homo sapiens, UniProt P06213); test: Inhibition of IRK
Chain of Insulin receptor (P06213 28-758 limits assumed): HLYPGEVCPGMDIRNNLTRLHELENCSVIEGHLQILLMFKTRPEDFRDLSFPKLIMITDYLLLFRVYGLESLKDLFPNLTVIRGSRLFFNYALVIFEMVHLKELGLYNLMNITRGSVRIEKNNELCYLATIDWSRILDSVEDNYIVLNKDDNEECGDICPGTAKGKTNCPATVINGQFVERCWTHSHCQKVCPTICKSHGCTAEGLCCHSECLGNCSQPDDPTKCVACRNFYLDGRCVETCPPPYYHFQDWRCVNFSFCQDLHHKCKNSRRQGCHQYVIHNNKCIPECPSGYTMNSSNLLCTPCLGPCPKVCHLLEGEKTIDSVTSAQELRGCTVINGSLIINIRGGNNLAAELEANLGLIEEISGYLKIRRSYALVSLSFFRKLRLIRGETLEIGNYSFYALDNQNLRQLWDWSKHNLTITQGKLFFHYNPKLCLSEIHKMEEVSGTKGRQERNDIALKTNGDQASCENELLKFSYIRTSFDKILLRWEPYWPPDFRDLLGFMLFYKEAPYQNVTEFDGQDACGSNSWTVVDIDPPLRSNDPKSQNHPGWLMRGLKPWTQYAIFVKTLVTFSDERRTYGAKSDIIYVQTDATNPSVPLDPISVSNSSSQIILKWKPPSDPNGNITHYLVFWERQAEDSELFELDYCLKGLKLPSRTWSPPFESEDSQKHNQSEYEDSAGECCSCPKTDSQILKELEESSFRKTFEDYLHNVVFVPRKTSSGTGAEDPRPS
Chain of Insulin receptor (P06213 763-1382 limits assumed): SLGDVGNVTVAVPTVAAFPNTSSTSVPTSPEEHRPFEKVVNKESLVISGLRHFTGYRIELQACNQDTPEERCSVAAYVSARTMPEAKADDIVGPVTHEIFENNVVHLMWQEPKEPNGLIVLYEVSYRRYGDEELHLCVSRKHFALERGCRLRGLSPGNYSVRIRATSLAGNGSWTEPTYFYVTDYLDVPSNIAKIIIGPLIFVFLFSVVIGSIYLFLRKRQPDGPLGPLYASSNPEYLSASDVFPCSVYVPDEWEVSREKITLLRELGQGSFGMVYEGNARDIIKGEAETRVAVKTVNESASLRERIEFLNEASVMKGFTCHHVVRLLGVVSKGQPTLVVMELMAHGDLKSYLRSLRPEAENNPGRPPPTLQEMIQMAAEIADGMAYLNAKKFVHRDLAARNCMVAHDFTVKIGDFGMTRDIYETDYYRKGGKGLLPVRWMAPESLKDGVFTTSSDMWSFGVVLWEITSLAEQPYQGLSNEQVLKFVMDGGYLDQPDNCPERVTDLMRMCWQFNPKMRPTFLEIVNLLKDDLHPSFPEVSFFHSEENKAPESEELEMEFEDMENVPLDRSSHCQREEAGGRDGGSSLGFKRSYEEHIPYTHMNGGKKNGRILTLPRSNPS

[2] = molecular target: T1, Tyrosine-protein kinase ITK/TSK; test: Inhibition of human ITK expressed in chicken DT40 cells assessed as calcium influx by FLIPR; format: cell-based
[3] = Selectivity ratio of IC50 for IRK to IC50 for ITK

SMILES	IC50 [1] [µM]	IC50 (Insulin receptor) [µM]	IC50 [2] [µM]	Ratio IC50 [3]
CN(C(=O)c1ccccc1)c1ccc2c(c1)[nH]/c(=N\C(=O)c1cncs1)n2CCC(N)=O	0.13	1.6	> 5	
CN(C(=O)c1ccccc1)c1ccc2c(c1)[nH]/c(=N\C(=O)c1ccc(N3CCCC3)s1)n2CCC(N)=O		> 6		
CN(C(=O)c1ccccc1)c1ccc2c(c1)nc(NC(=O)c1ccc(N3CCOCC3)s1)n2CCC(N)=O	0.074	> 6	> 3.2	
CN(C(=O)c1ccccc1)c1ccc2c(c1)nc(NC(=O)c1ccc(N3CCNCC3)s1)n2CCC(N)=O	0.15	> 6	> 3.2	
CN(C(=O)c1ccccc1)c1ccc2c(c1)[nH]/c(=N\C(=O)c1ccc(-c3ncco3)s1)n2CCC(N)=O		> 6		
CC(=O)c1ccc(C(=O)Nc2nc3cc(N(C)C(=O)c4ccccc4)ccc3n2CCC(N)=O)s1		> 6		
CN(C(=O)c1ccccc1)c1ccc2c(c1)nc(NC(=O)c1cscn1)n2CCC(N)=O	0.34	6.1	> 5	
CN(C(=O)c1ccccc1)c1ccc2c(c1)[nH]/c(=N\C(=O)c1cccc(-c3ccccc3)c1)n2CCC(N)=O		> 6		
CN(C(=O)c1ccccc1)c1ccc2c(c1)nc(NC(=O)c1ccc(Br)s1)n2CCC(N)=O	0.015	0.63	0.1	
CN(C(=O)c1ccccc1)c1ccc2c(c1)[nH]/c(=N\C(=O)c1ncco1)n2CCC(N)=O		> 6		
CN(C(=O)c1ccccc1)c1ccc2c(c1)[nH]/c(=N\C(=O)c1cnco1)n2CCC(N)=O	0.18	> 6	> 5	> 1000
CN(C(=O)c1ccccc1)c1ccc2c(c1)nc(NC(=O)c1ccno1)n2CCC(N)=O		> 6		
CN(C(=O)c1ccccc1)c1ccc2c(c1)nc(NC(=O)c1ccc(-c3ccc(F)nc3)s1)n2CCC(N)=O		> 6		
CN(C(=O)c1ccccc1)c1ccc2c(c1)[nH]/c(=N\C(=O)c1ccc(N3CCCCC3)s1)n2CCC(N)=O		> 6		
CN(C(=O)c1ccccc1)c1ccc2c(c1)[nH]/c(=N\C(=O)c1ccc(-c3ccccc3)s1)n2CCC(N)=O		> 6		
CN(C(=O)c1ccccc1)c1ccc2c(c1)nc(NC(=O)c1ccc(Oc3ccccc3)s1)n2CCC(N)=O		> 6		
CN(C(=O)c1ccccc1)c1ccc2c(c1)nc(NC(=O)c1ccc(C(=O)c3ccccc3)s1)n2CCC(N)=O		> 6		
CN(C(=O)c1ccccc1)c1ccc2c(c1)[nH]/c(=N\C(=O)c1ccc(-c3ccccn3)s1)n2CCC(N)=O		> 6		
CN(C(=O)c1ccccc1)c1ccc2c(c1)[nH]/c(=N\C(=O)c1ccc(-c3cncc(C#N)c3)s1)n2CCC(N)=O		> 6		
COc1ccc(C(=O)Nc2nc3cc(N(C)C(=O)c4ccccc4)ccc3n2CCC(N)=O)cc1	0.17	> 6	> 5	

SMILES	IC50 [1] [µM]	IC50 (Insulin receptor) [µM]	IC50 [2] [µM]	Ratio IC50 [3]
CN(C(=O)c1ccccc1)c1ccc2c(c1)nc(NC(=O)c1ccc(-c3nccs3)s1)n2CCC(N)=O		> 6		
CN(C(=O)c1ccccc1)c1ccc2c(c1)nc(NC(=O)c1ccc(-c3cocn3)s1)n2CCC(N)=O		> 6		
CN(C(=O)c1ccccc1)c1ccc2c(c1)nc(NC(=O)c1ccc(-c3ccnc(F)c3)s1)n2CCC(N)=O		> 6		
CN(C(=O)c1ccccc1)c1ccc2c(c1)[nH]/c(=N\C(=O)c1cccc3ccccc13)n2CCC(N)=O		5.8		
CN(C(=O)c1ccccc1)c1ccc2c(c1)[nH]/c(=N\C(=O)c1ccc(-c3cnccn3)s1)n2CCC(N)=O		> 6		
CN(C(=O)c1ccccc1)c1ccc2c(c1)[nH]/c(=N\C(=O)c1ccc(-c3ccccc3)cc1)n2CCC(N)=O		> 6		
CN(C(=O)c1ccccc1)c1ccc2c(c1)nc(NC(=O)c1ccc(C#N)cc1)n2CCC(N)=O		> 6		
CN(C(=O)c1ccccc1)c1ccc2c(c1)[nH]/c(=N\C(=O)c1cocn1)n2CCC(N)=O				> 1000
CN(C(=O)c1ccccc1)c1ccc2c(c1)nc(NC(=O)c1cocn1)n2CCC(N)=O	0.17	> 6	> 5	
CN(C(=O)c1ccccc1)c1ccc2c(c1)[nH]/c(=N\C(=O)c1ccc(-c3ccc(C#N)nc3)s1)n2CCC(N)=O		> 6		
CN(C(=O)c1ccccc1)c1ccc2c(c1)nc(NC(=O)c1ccc(OCc3ccccc3)s1)n2CCC(N)=O		> 6		
CN(C(=O)c1ccccc1)c1ccc2c(c1)nc(NC(=O)c1ccsc1)n2CCC(N)=O		0.24		
CN(C(=O)c1ccccc1)c1ccc2c(c1)[nH]/c(=N\C(=O)c1ccc(-c3cccnc3)s1)n2CCC(N)=O		> 6		
CN(C(=O)c1ccccc1)c1ccc2c(c1)nc(NC(=O)c1ccc3ccccc3c1)n2CCC(N)=O		> 6		
CC(C)C(=O)c1ccc(C(=O)Nc2nc3cc(N(C)C(=O)c4ccccc4)ccc3n2CCC(N)=O)s1		> 6		
CN(C(=O)c1ccccc1)c1ccc2c(c1)[nH]/c(=N\C(=O)c1ccc(-c3ccncc3)s1)n2CCC(N)=O		> 6		
CN(C(=O)c1ccccc1)c1ccc2c(c1)[nH]/c(=N\C(=O)c1ccc(-c3csc(N)n3)s1)n2CCC(N)=O		> 6		
CN(C(=O)c1ccccc1)c1ccc2c(c1)nc(NC(=O)c1ccc(-c3ccnc(C#N)c3)s1)n2CCC(N)=O		> 6		
CN(C(=O)c1ccccc1)c1ccc2c(c1)nc(NC(=O)c1ccc(Br)cc1)n2CCC(N)=O		> 6		
